Source: US9789096B2, “Methods and compositions for selective and targeted cancer therapy” (Board of Regents of the University of Texas System, priority 2013, dated 2017)

tested on: H1819; test: Cell viability dose-response, H1819; type: cell-based, human; conditions: Homo sapiens, NCI-H1819, 12-point dose-response starting at 50 micromolar, 3-fold increments, in duplicate; read-out: toxicity data, H1819
Procedure: (§1) FIG. 6A. […] Cell viability is plotted vs. compound concentration. Compound was added to cells plated at 15% confluence in 96-well plates in RPMI-1640 media supplemented with 5% Fetal Bovine Serum and 2 mM L-Glutamine. After 4 days of incubation, ATP levels were measured using Cell Titer Glo (Promega). Data are presented as the average of 2 replicates ±SEM.
(§2) Selectivity may be measured by the half maximal inhibitory concentration (IC50), which, as used herein, is a measure of the effectiveness of a compound in killing cells. This quantitative measure indicates how much of a particular compound is needed to kill a particular cell population by half (e.g., as indicated by the amount of ATP). […] The IC50 can be determined by constructing a dose-response curve. The lower the IC50, the higher the potency, and the greater the difference between IC50 values for different cell lines (e.g., sensitive lines vs. insensitive lines, and sensitive lines vs. normal lines) the greater the selectivity. […]
(§3) With this information, we synthesized and tested a series of small molecules derived in conception from the oxalamide and chromone scaffold including N-acyl ureas, as shown in Tables 6-8. Each compound was tested in a 12-point dose-response study starting at 50 micromolar and decreasing in 3-fold increments to sub-nanomolar concentrations, in duplicate. Additionally, one or more additional cell line was tested in the same way.

SMILES	IC50
COc1ccc(CCNC(=O)C(=O)Nc2ccc(Cl)c(Cl)c2)cc1 [SW206960-1]	≥ 49.5 µM
COc1ccc(CCNC(=O)C(=O)Nc2ccc(F)cc2)cc1 [SW206961-1]	≥ 49.5 µM
COc1ccc(CCNC(=O)C(=O)Nc2ccc(Cl)c(C(F)(F)F)c2)cc1 [SW206962-1]	≥ 49.5 µM
COc1ccc(CCNC(=O)C(=O)NCCc2ccc(OC)cc2)cc1 [SW206963-1]	≥ 49.5 µM
COc1cccc(CCNC(=O)C(=O)Nc2ccc(Cl)cc2)c1 [SW206964-1]	≥ 49.5 µM
COc1cccc(CCNC(=O)C(=O)Nc2ccc(Cl)cc2C)c1 [SW206965-1]	≥ 49.5 µM
COc1ccc(CCNC(=O)C(=O)Nc2ccc(C(=O)c3ccccc3)cc2)cc1 [SW206966-1]	≥ 49.5 µM
COc1ccc(CCNC(=O)C(=O)Nc2ccccc2)cc1 [SW206967-1]	≥ 49.5 µM
COc1ccc(CCNC(=O)C(=O)Nc2ccc(OC)cc2C)cc1 [SW206968-1]	≥ 49.5 µM
COc1ccc(CCNC(=O)C(=O)Nc2ccc(C)c(OC)c2)cc1 [SW206969-1]	49 µM
COc1ccc(CCNC(=O)C(=O)Nc2ccc(OC)c(C)c2)cc1 [SW206970-1]	≥ 49.5 µM
COc1ccc(CCNC(=O)C(=O)Nc2ccc(C)cc2OC)cc1 [SW206971-1]	≥ 49.5 µM
COc1ccc(CCNC(=O)C(=O)Nc2ccc(Cl)c(OC)c2)cc1 [SW206973-1]	49 µM
COc1ccc(CCNC(=O)C(=O)Nc2ccc(Cl)c(C)c2)cc1 [SW206974-1]	≥ 49.5 µM
C#CCOc1ccc(CCNC(=O)C(=O)Nc2ccc(C(=O)c3ccccc3)cc2)cc1 [SW207038-2-A]	≥ 49.5 µM
COc1ccc(CCNC(=O)C(=O)Nc2ccc(C(=O)c3ccc(OC)cc3)cc2)cc1 [SW208009-1-A]	≥ 49.5 µM
O=C(NCCc1ccc(O)cc1)C(=O)Nc1ccc(Cl)cc1 [SW208023-1-A]	7.74 µM
COc1ccc(CCNC(=O)Nc2ccc(OC)cc2)cc1 [SW208024-1-A]	≥ 49.5 µM
COc1ccc(CCNC(=O)C(=O)NCc2ccc(Cl)cc2)cc1 [SW208025-1-A]	≥ 49.5 µM
COc1ccc(CNC(=O)C(=O)NCc2ccc(Cl)cc2)cc1 [SW208026-1-A]	≥ 49.5 µM
Cc1ccccc1CCNC(=O)C(=O)Nc1ccc(Cl)cc1 [SW208027-1-A]	≥ 49.5 µM
COc1ccc(CCNC(=O)C(=O)N(C)c2cccc(F)c2)cc1 [SW208028-1-A]	≥ 49.5 µM
COc1ccc(CCCNC(=O)Nc2ccc(OC)cc2)cc1 [SW208029-1-A]	≥ 49.5 µM
COc1ccc(CCNC(=O)C(=O)N2CCCCC2)cc1 [SW208030-1-A]	≥ 49.5 µM

SMILES	IC50
COc1ccc(CCNC(=O)C(=O)NC2CC2)cc1 [SW208031-1-A]	≥ 49.5 µM
COc1ccc(CCNC(=O)C(=O)NC2CCC2)cc1 [SW208032-1-A]	≥ 49.5 µM
COc1ccc(CCNC(=O)C(=O)NC2CCCC2)cc1 [SW208033-1-A]	≥ 49.5 µM
COc1ccc(CCNC(=O)C(=O)NC2CCCCC2)cc1 [SW208034-1-A]	≥ 49.5 µM
COc1ccc(CCNC(=O)C(=O)NC2CCCCCC2)cc1 [SW208035-1-A]	≥ 49.5 µM
Cc1ccc(CCNC(=O)C(=O)Nc2ccc(Cl)cc2)cc1 [SW208036-1-A]	≥ 49.5 µM
O=C(NCCc1cccc(Cl)c1)C(=O)Nc1ccc(Cl)cc1 [SW208037-1-A]	≥ 49.5 µM
COc1ccc(CCNC(=O)COc2ccc(Cl)cc2)cc1 [SW208038-1-A]	≥ 49.5 µM
O=C(NCCc1ccc(F)cc1)C(=O)Nc1ccc(Cl)cc1 [SW208039-1-A]	≥ 49.5 µM
COc1ccc(CNC(=O)COc2ccc(Cl)cc2)cc1 [SW208040-1-A]	≥ 49.5 µM
COc1ccc(CCNC(=O)CNc2ccc(Cl)cc2)cc1 [SW208041-1-A]	≥ 49.5 µM
COc1ccc(CNC(=O)CNc2ccc(Cl)cc2)cc1 [SW208042-1-A]	≥ 49.5 µM
COc1ccc(CCNC(=O)NCc2ccccc2)cc1 [SW208043-2-A]	≥ 49.5 µM
COc1ccc(CCNC(=O)C(=O)N2CCOCC2)cc1 [SW208044-1-A]	≥ 49.5 µM
COc1ccc(CNC(=O)Nc2ccc(Cl)cc2)cc1 [SW208046-1-A]	≥ 49.5 µM
COc1ccc(CNC(=O)NCc2ccccc2)cc1 [SW208047-1-A]	≥ 49.5 µM
COc1ccc(CCNC(=O)C(=O)N2CCN(C)CC2)cc1 [SW208048-1-A]	≥ 49.5 µM
COc1ccc(CCNC(=O)C(=O)N2CCCC2)cc1 [SW208049-1-A]	≥ 49.5 µM
COc1ccc(CCNC(=O)c2nc3ccccc3[nH]2)cc1 [SW208050-1-A]	≥ 49.5 µM
COc1ccc(CCNC(=O)c2cnc3ccccc3n2)cc1 [SW208051-1-A]	≥ 49.5 µM
COc1ccc(CCNC(=O)c2ccc3ccccc3n2)cc1 [SW208052-1-A]	≥ 49.5 µM
COc1ccc(CCNC(=O)c2cc(OC)c3ccccc3n2)cc1 [SW208053-1-A]	32 µM
COc1ccc(CCNC(=O)c2cc(O)c3cccc(O)c3n2)cc1 [SW208054-1-A]	≥ 49.5 µM

same assay, conditions: Homo sapiens, NCI-H1819, read-out: toxicity data, H1819

SMILES	IC50
COc1ccc(CCNC(=O)Nc2ccc(Cl)cc2)cc1 [SW208045-1-A]	≥ 49.5 µM

tested on: H2122; test: Cell viability dose-response, H2122; type: cell-based, human; conditions: Homo sapiens, NCI-H2122, 12-point dose-response starting at 50 micromolar, 3-fold increments, in duplicate; read-out: toxicity data, H2122
Procedure: as §1, §2, §3

SMILES	IC50
COc1ccc(CCNC(=O)C(=O)Nc2ccc(Cl)c(Cl)c2)cc1 [SW206960-1]	0.491 µM
COc1ccc(CCNC(=O)C(=O)Nc2ccc(F)cc2)cc1 [SW206961-1]	0.286 µM
COc1ccc(CCNC(=O)C(=O)Nc2ccc(Cl)c(C(F)(F)F)c2)cc1 [SW206962-1]	1.4 µM
COc1ccc(CCNC(=O)C(=O)NCCc2ccc(OC)cc2)cc1 [SW206963-1]	≥ 49.5 µM
COc1cccc(CCNC(=O)C(=O)Nc2ccc(Cl)cc2)c1 [SW206964-1]	≥ 49.5 µM
COc1cccc(CCNC(=O)C(=O)Nc2ccc(Cl)cc2C)c1 [SW206965-1]	≥ 49.5 µM
COc1ccc(CCNC(=O)C(=O)Nc2ccc(C(=O)c3ccccc3)cc2)cc1 [SW206966-1]	0.085 µM
COc1ccc(CCNC(=O)C(=O)Nc2ccccc2)cc1 [SW206967-1]	0.456 µM
COc1ccc(CCNC(=O)C(=O)Nc2ccc(OC)cc2C)cc1 [SW206968-1]	≥ 49.5 µM
COc1ccc(CCNC(=O)C(=O)Nc2ccc(C)c(OC)c2)cc1 [SW206969-1]	≥ 49.5 µM
COc1ccc(CCNC(=O)C(=O)Nc2ccc(OC)c(C)c2)cc1 [SW206970-1]	0.809 µM
COc1ccc(CCNC(=O)C(=O)Nc2ccc(C)cc2OC)cc1 [SW206971-1]	≥ 49.5 µM
COc1ccc(CCNC(=O)C(=O)Nc2ccc(Cl)c(OC)c2)cc1 [SW206973-1]	≥ 49.5 µM
COc1ccc(CCNC(=O)C(=O)Nc2ccc(Cl)c(C)c2)cc1 [SW206974-1]	0.697 µM
C#CCOc1ccc(CCNC(=O)C(=O)Nc2ccc(C(=O)c3ccccc3)cc2)cc1 [SW207038-2-A]	3.17 µM
COc1ccc(CCNC(=O)C(=O)Nc2ccc(C(=O)c3ccc(OC)cc3)cc2)cc1 [SW208009-1-A]	0.081 µM
O=C(NCCc1ccc(O)cc1)C(=O)Nc1ccc(Cl)cc1 [SW208023-1-A]	0.257 µM
COc1ccc(CCNC(=O)Nc2ccc(OC)cc2)cc1 [SW208024-1-A]	≥ 49.5 µM
COc1ccc(CCNC(=O)C(=O)NCc2ccc(Cl)cc2)cc1 [SW208025-1-A]	≥ 49.5 µM
COc1ccc(CNC(=O)C(=O)NCc2ccc(Cl)cc2)cc1 [SW208026-1-A]	≥ 49.5 µM
Cc1ccccc1CCNC(=O)C(=O)Nc1ccc(Cl)cc1 [SW208027-1-A]	≥ 49.5 µM
COc1ccc(CCNC(=O)C(=O)N(C)c2cccc(F)c2)cc1 [SW208028-1-A]	≥ 49.5 µM
COc1ccc(CCCNC(=O)Nc2ccc(OC)cc2)cc1 [SW208029-1-A]	≥ 49.5 µM
COc1ccc(CCNC(=O)C(=O)N2CCCCC2)cc1 [SW208030-1-A]	≥ 49.5 µM

SMILES	IC50
COc1ccc(CCNC(=O)C(=O)NC2CC2)cc1 [SW208031-1-A]	≥ 49.5 µM
COc1ccc(CCNC(=O)C(=O)NC2CCC2)cc1 [SW208032-1-A]	≥ 49.5 µM
COc1ccc(CCNC(=O)C(=O)NC2CCCC2)cc1 [SW208033-1-A]	≥ 49.5 µM
COc1ccc(CCNC(=O)C(=O)NC2CCCCC2)cc1 [SW208034-1-A]	≥ 49.5 µM
COc1ccc(CCNC(=O)C(=O)NC2CCCCCC2)cc1 [SW208035-1-A]	≥ 49.5 µM
Cc1ccc(CCNC(=O)C(=O)Nc2ccc(Cl)cc2)cc1 [SW208036-1-A]	≥ 49.5 µM
O=C(NCCc1cccc(Cl)c1)C(=O)Nc1ccc(Cl)cc1 [SW208037-1-A]	≥ 49.5 µM
COc1ccc(CCNC(=O)COc2ccc(Cl)cc2)cc1 [SW208038-1-A]	≥ 49.5 µM
O=C(NCCc1ccc(F)cc1)C(=O)Nc1ccc(Cl)cc1 [SW208039-1-A]	47.5 µM
COc1ccc(CNC(=O)COc2ccc(Cl)cc2)cc1 [SW208040-1-A]	≥ 49.5 µM
COc1ccc(CCNC(=O)CNc2ccc(Cl)cc2)cc1 [SW208041-1-A]	48.4 µM
COc1ccc(CNC(=O)CNc2ccc(Cl)cc2)cc1 [SW208042-1-A]	≥ 49.5 µM
COc1ccc(CCNC(=O)NCc2ccccc2)cc1 [SW208043-2-A]	≥ 49.5 µM
COc1ccc(CCNC(=O)C(=O)N2CCOCC2)cc1 [SW208044-1-A]	≥ 49.5 µM
COc1ccc(CNC(=O)Nc2ccc(Cl)cc2)cc1 [SW208046-1-A]	≥ 49.5 µM
COc1ccc(CNC(=O)NCc2ccccc2)cc1 [SW208047-1-A]	≥ 49.5 µM
COc1ccc(CCNC(=O)C(=O)N2CCN(C)CC2)cc1 [SW208048-1-A]	≥ 49.5 µM
COc1ccc(CCNC(=O)C(=O)N2CCCC2)cc1 [SW208049-1-A]	≥ 49.5 µM
COc1ccc(CCNC(=O)c2nc3ccccc3[nH]2)cc1 [SW208050-1-A]	≥ 49.5 µM
COc1ccc(CCNC(=O)c2cnc3ccccc3n2)cc1 [SW208051-1-A]	≥ 49.5 µM
COc1ccc(CCNC(=O)c2ccc3ccccc3n2)cc1 [SW208052-1-A]	≥ 49.5 µM
COc1ccc(CCNC(=O)c2cc(OC)c3ccccc3n2)cc1 [SW208053-1-A]	45.9 µM
COc1ccc(CCNC(=O)c2cc(O)c3cccc(O)c3n2)cc1 [SW208054-1-A]	46.3 µM

same assay, conditions: Homo sapiens, NCI-H2122, read-out: toxicity data, H2122

SMILES	IC50
COc1ccc(CCNC(=O)Nc2ccc(Cl)cc2)cc1 [SW208045-1-A]	≥ 49.5 µM
